Assay results from PMC12806164, “Epithelial Heparan Sulfate Promotes Staphylococcus aureus Corneal Infection by Inhibiting Cathelicidins” (Proteoglycan research, 2025).
Like-named read-outs stand apart in the source and are kept apart here.

Tests used:
LL-37 = test: Inhibition by glycosaminoglycans of S. aureus killing by LL-37; format: cell-based, human; details: 5 μg/mL glycosaminoglycan, 1 μM LL-37, ~500 cfu USA300, phosphate buffer pH 7.4, 2 h at 37°C, n = 6
Experimental: (§1) Samples were plated onto TSA plates, and viable bacteria (cfu) were counted the following day. Data are shown as % bacterial killing, where killing activity in the presence of cathelicidin only represents 100% (n = 6, *p < 0.05, ****p < 0.0001, one-way ANOVA, multiple comparisons).
(§2) (A) Schematics of HS/HP structure. […] (F) BaclightGreen-labeled S. aureus (~400 cfu) was incubated with 0.5 μM CRAMP without or with 5 μg/mL HP, NDS-HP, 2ODS-HP, 6ODS-HP, H, NS-H, or NS2OS-H for 30 min at room temperature. Bacteria were washed, incubated with 10 μg/mL propidium iodide for 15 min at 4°C, and live (green) and dead (red) bacteria were visualized by fluorescence microscopy.
(§3) Late log phase S. aureus USA300 was washed with phosphate buffer (8.2 mM Na2HPO4, 1.8 mM KH2PO4, pH 7.4) and approximately 500 cfu were incubated with cathelicidins with or without excess GAGs for 2 h at 37°C as indicated. Viable bacteria were enumerated by plating onto TSA plates and counting colonies the following day. Results are shown as % bacterial killing, where 100% killing represents data derived from the group of bacteria incubated with cathelicidins only.

CRAMP [1] = test: Alexa 647-CRAMP binding to fixed S. aureus, inhibition by glycosaminoglycans (flow cytometry); parameters: species or system mouse; details: 0.5 μM Alexa 647-conjugated CRAMP; for Decrease of MFI of Alexa-labeled CRAMP binding to S. aureus compared to control: 5 μg/mL glycosaminoglycan, 2% paraformaldehyde-fixed S. aureus USA300, 1 h at room temperature, n = 3; for Reduction of proportion of CRAMP-bound bacteria (Alexa CRAMP binding, FACS density plots) compared to No GAG: 5 μg/ml glycosaminoglycan, fixed S. aureus USA300, 1 h at room temperature, representative plots
Experimental: Alexa 647-conjugated CRAMP (0.5 μM) was incubated with 2% paraformaldehyde-fixed Staphylococcus aureus USA300 without or with 5 μg/mL HP, HS, CS, DS, NDS-HP, 6ODS-HP, or 2ODS-HP for 1 h at room temperature. S. aureus-associated CRAMP fluorescence was analyzed by flow cytometry. Results are shown as % Alexa CRAMP binding (n = 3, ****p < 0.0001).
Alexa 647 fluorophore was conjugated to CRAMP using the Lightning-Link Rapid FluoProbes647H labeling kit following the manufacturer’s instructions. S. aureus USA300 fixed in 2% paraformaldehyde for 20 min was resuspended in 20 μL of phosphate buffer and incubated with 0.5 μM of Alexa 647-labeled CRAMP for 30 min at room temperature without or with glycosaminoglycans. Unbound Alexa 647-labeled CRAMP was removed by washing with phosphate buffer, and Alexa 647-labeled CRAMP bound to bacteria was assessed by flow cytometry.
(§4) Figure S1. A) CRAMP expression was measured in uninfected Wt corneas or Wt corneas isolated at 4 h post-S. aureus USA300 infection. Briefly, eyes were enucleated, corneas were dissected, and isolated corneas were incubated with 10 mg/ml dispase II overnight at 4°C to peel off the corneal epithelium. Total RNA was purified from the corneal epithelium, and 1 ng of total RNA was analyzed by qRT-PCR for CRAMP or β-actin expression (n = 3, **p < 0.01). […] Bacterial killing was measured by plating serial dilutions onto TSA plates and counting colonies the following day. Results are shown as % bacterial survival (n = 4). Figure S2. […] Bacterial killing (%) was enumerated by plating serial dilutions onto TSA plates and counting colonies the following day (n = 5). B) Effects of pre-incubating S. aureus with glycosaminoglycans on bacterial killing by cathelicidins were examined by incubating 500 cfu of USA300 without or with 5 μg/ml HS, HP, DS, or CS for 30 min at 37°C. Bacteria were washed three times with buffer, incubated with 0.5 μM CRAMP for 2 h at 37°C, and % bacterial killing was determined by plating serial dilutions of samples (n = 4). Figure S3. S. aureus USA300 stained with BaclightGreen was incubated with 0.5 μM CRAMP in the absence or presence of 5 μg/ml HP, NDS-HP, 2ODS-HP, 6ODS-HP, H, NS-H, or NS2OS-H for 30 min at room temperature. Bacteria were washed and incubated with 10 μg/ml propidium iodide for 15 min on ice. Images were captured with a fluorescence microscope (Zeiss Axiovert 40 CFL). Quantification of % dead bacteria (out of total bacteria in field) is shown at the bottom. Figure S4. Alexa 647-conjugated CRAMP (0.5 μM) was incubated with fixed S. aureus USA300 without or with 5 μg/ml of the indicated glycosaminoglycans and chemically-desulfated HP compounds for 1 h at room temperature. S. aureus-associated CRAMP fluorescence was analyzed by flow cytometry. Representative FACS density plots are shown where heparan compounds containing 2-O-sulfated motifs decreased Alexa CRAMP binding by over 79% compared to the control (No GAG), except for NDS-HP where the reduction was approximately 65%. Fig. S5. Relative mRNA levels of A) Ndst1 and B) Sdc1 in the corneal epithelium of Hs2st^fl/fl, Krt12Cre, and Hs2st^fl/fl/Krt12Cre mice (n = 3).

SMAP-29 = test: Inhibition by glycosaminoglycans of S. aureus killing by SMAP-29; format: cell-based, sheep; details: 5 μg/mL glycosaminoglycan, 0.5 μM SMAP-29, ~500 cfu USA300, phosphate buffer pH 7.4, 2 h at 37°C, n = 6
Experimental: as §1, §2, §3

CRAMP [2] = test: Inhibition by glycosaminoglycans of S. aureus killing by CRAMP; format: cell-based, mouse; details: 0.5 μM CRAMP; for Inhibition of S. aureus killing by CRAMP: 5 μg/mL glycosaminoglycan, ~500 cfu USA300, phosphate buffer pH 7.4, 2 h at 37°C, n = 6
Experimental: as §1, §2, §3, §4

CAP-18 = test: Inhibition by glycosaminoglycans of S. aureus killing by CAP-18; format: cell-based, rabbit; details: 5 μg/mL glycosaminoglycan, 0.5 μM CAP-18, ~500 cfu USA300, phosphate buffer pH 7.4, 2 h at 37°C, n = 6
Experimental: as §1, §2, §3

S. aureus USA300 [3] = details: 500 cfu S. aureus USA300, 2 h at 37°C, cfu on TSA plates, n = 4
Experimental: Bacterial killing was measured by plating serial dilutions onto TSA plates and counting colonies the following day. Results are shown as % bacterial survival (n = 4). […] Bacterial killing (%) was enumerated by plating serial dilutions onto TSA plates and counting colonies the following day (n = 5). B) Effects of pre-incubating S. aureus with glycosaminoglycans on bacterial killing by cathelicidins were examined by incubating 500 cfu of USA300 without or with 5 μg/ml HS, HP, DS, or CS for 30 min at 37°C. Bacteria were washed three times with buffer, incubated with 0.5 μM CRAMP for 2 h at 37°C, and % bacterial killing was determined by plating serial dilutions of samples (n = 4). […] Images were captured with a fluorescence microscope (Zeiss Axiovert 40 CFL). Quantification of % dead bacteria (out of total bacteria in field) is shown at the bottom. […] S. aureus-associated CRAMP fluorescence was analyzed by flow cytometry.

[4] = ref 44 (LL-37), ref 39 (CAP-18), ref 42 (SMAP-29); cited from earlier work
Text: Next, we examined the dose response to cathelicidins from different species, which can have relatively large differences in primary sequence.

CRAMP [5] = test: Alexa 647-CRAMP binding to Affi-Gel HP beads, competition by HP compounds (flow cytometry); parameters: species or system mouse; details: 20 μg/mL competitor, 0.5 μM Alexa 647-conjugated CRAMP, 1 h at room temperature, n = 4
Experimental: FIGURE 4 | 2-O-sulfated heparan compounds directly bind to CRAMP with high affinity. Alexa 647-conjugated CRAMP (0.5 μM) was incubated with Affi-Gel HP beads without or with 20 μg/mL of HP, NDS-HP, 2ODS-HP, or 6ODS-HP for 1 h at room temperature. CRAMP fluorescence associated with Affi-Gel HP beads was analyzed by flow cytometry. Results are shown as (A) % CRAMP binding and (B) mean fluorescence intensity (MFI) of CRAMP binding (n = 4, ***p < 0.001, ****p < 0.0001). ITC analyses for CRAMP binding to HP were performed at 25°C using a MicroCal iTC 200 titration calorimetry. The fitted heat curves of titrating CRAMP binding to (C) HP and (D) 2ODS-HP are shown.
Affi-Gel HP beads were washed and resuspended in PBS. Affi-Gel HP beads (20 μL) were incubated with 0.5 μM Alexa 647-labeled CRAMP without or with 20 μg/mL HP, chemically desulfated HP, or chemoenzymatically sulfated H for 1 h at room temperature. Affi-Gel HP beads were washed with PBS, and the Alexa 647-labeled CRAMP bound to them was assessed by flow cytometry.

S. aureus USA300 [6] = test: Pre-incubation of S. aureus with glycosaminoglycans, washing, then killing by cathelicidin; format: cell-based, Staphylococcus aureus; details: 5 μg/ml glycosaminoglycan pre-incubated with 500 cfu USA300 30 min at 37°C, washed three times, then 0.5 μM CRAMP 2 h at 37°C, n = 4
Experimental: Figure S1. A) CRAMP expression was measured in uninfected Wt corneas or Wt corneas isolated at 4 h post-S. aureus USA300 infection. Briefly, eyes were enucleated, corneas were dissected, and isolated corneas were incubated with 10 mg/ml dispase II overnight at 4°C to peel off the corneal epithelium. Total RNA was purified from the corneal epithelium, and 1 ng of total RNA was analyzed by qRT-PCR for CRAMP or β-actin expression (n = 3, **p < 0.01). […] Bacterial killing was measured by plating serial dilutions onto TSA plates and counting colonies the following day. Results are shown as % bacterial survival (n = 4). Figure S2. […] Bacterial killing (%) was enumerated by plating serial dilutions onto TSA plates and counting colonies the following day (n = 5). B) Effects of pre-incubating S. aureus with glycosaminoglycans on bacterial killing by cathelicidins were examined by incubating 500 cfu of USA300 without or with 5 μg/ml HS, HP, DS, or CS for 30 min at 37°C. Bacteria were washed three times with buffer, incubated with 0.5 μM CRAMP for 2 h at 37°C, and % bacterial killing was determined by plating serial dilutions of samples (n = 4). Figure S3. […] Images were captured with a fluorescence microscope (Zeiss Axiovert 40 CFL). Quantification of % dead bacteria (out of total bacteria in field) is shown at the bottom. […] S. aureus-associated CRAMP fluorescence was analyzed by flow cytometry. […]

Row | Compound | Inhibition of S. aureus killing by LL-37 (LL-37) | Decrease of MFI of Alexa-labeled CRAMP binding to S. aureus compared to control (CRAMP [1]) | Reduction of proportion of CRAMP-bound bacteria (Alexa CRAMP binding, FACS density plots) compared to No GAG (CRAMP [1]) | Inhibition of S. aureus killing by SMAP-29 (SMAP-29) | Inhibition of S. aureus killing by CRAMP (CRAMP [2]) | Inhibition of S. aureus killing by CAP-18 (CAP-18) | S. aureus killed (S. aureus USA300 [3]; 0.5 μM peptide) | pI [4] | Inhibition of CRAMP binding to HP beads (CRAMP [5]) | Inhibition of bacterial killing by cathelicidins after pre-incubation with bacteria and washing away (S. aureus USA300 [6]) | Inhibition of bacterial killing by CRAMP, titration study (CRAMP [2]; 5 μg/mL (~0.5 μM) HS, 500 cfu USA300, 2 h at 37°C, n = 5) | S. aureus killed (S. aureus USA300 [3]; 1 μM peptide)
1 | chondroitin sulfate A [CS] | no significant effect | no effect | not | no significant effect | no significant effect | no significant effect | – | – | – | – | – | –
2 | heparosan | minimal effect | – | – | minimal effect | minimal effect | minimal effect | – | – | – | – | – | –
3 | dermatan sulfate [DS] | 27% | no effect | not | did not inhibit | did not inhibit | 21% | – | – | – | – | – | –
4 | CAP-18 | – | – | – | – | – | – | Greater than 98% | 11.9 | – | – | – | –
5 | N-desulfated HP [NDS-HP] | did not alter the ability of HP to significantly inhibit | – | approximately 65% | did not alter the ability of HP to significantly inhibit | did not alter the ability of HP to significantly inhibit | did not alter the ability of HP to significantly inhibit | – | – | over 75% | – | – | –
6 | heparan sulfate [HS] | over 70% | – | – | over 70% | over 70% | over 70% | – | – | – | did not inhibit | significantly inhibited | –
7 | 6-O-desulfated HP [6ODS-HP] | did not alter the ability of HP to significantly inhibit | – | – | did not alter the ability of HP to significantly inhibit | did not alter the ability of HP to significantly inhibit | did not alter the ability of HP to significantly inhibit | – | – | over 75% | – | – | –
8 | CC[C@H](C)[C@H](NC(=O)[C@H](CCCCN)NC(=O)[C@H](CCC(=O)O)NC(=O)[C@H](CCCCN)NC(=O)[C@H](CO)NC(=O)[C@H](CCCCN)NC(=O)[C@H](CCCNC(=N)N)NC(=O)[C@H](Cc1ccccc1)NC(=O)[C@H](Cc1ccccc1)NC(=O)[C@H](CC(=O)O)NC(=O)CNC(=O)[C@H](CC(C)C)NC(=O)[C@@H](N)CC(C)C)C(=O)NCC(=O)N[C@@H](CCCCN)C(=O)N[C@@H](CCC(=O)O)C(=O)N[C@@H](Cc1ccccc1)C(=O)N[C@@H](CCCCN)C(=O)N[C@@H](CCCNC(=N)N)C(=O)N[C@H](C(=O)N[C@H](C(=O)N[C@@H](CCC(N)=O)C(=O)N[C@@H](CCCNC(=N)N)C(=O)N[C@H](C(=O)N[C@@H](CCCCN)C(=O)N[C@@H](CC(=O)O)C(=O)N[C@@H](Cc1ccccc1)C(=O)N[C@@H](CC(C)C)C(=O)N[C@@H](CCCNC(=N)N)C(=O)N[C@@H](CC(N)=O)C(=O)N[C@@H](CC(C)C)C(=O)N[C@H](C(=O)N1CCC[C@H]1C(=O)N[C@@H](CCCNC(=N)N)C(=O)N[C@H](C(=O)N[C@@H](CCC(=O)O)C(=O)N[C@@H](CO)C(=O)O)[C@@H](C)O)C(C)C)[C@@H](C)CC)C(C)C)[C@@H](C)CC [LL-37] | – | – | – | – | – | – | – | 10.5 | – | – | – | Greater than 98%
